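Method: 48-hour compound exposure of cells in 96-well plates, five concentrations, linear interpolation of endpoints. Abbreviation: GI50, concentration required for 50% inhibition of growth. TGI marks complete inhibition of growth.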
Columns and labels:
Assay in all cases: DTP human tumour cell line panel, 48 h
[1] = tested on: 786-0 renal
[2] = tested on: A498 renal
[3] = tested on: A549 NSCLC
[4] = tested on: ACHN renal
[5] = tested on: BT-549 breast
[6] = tested on: CAKI-1 renal
[7] = tested on: CCRF-CEM leukemia
[8] = tested on: COLO 205 colon
[9] = tested on: DU-145 prostate
[10] = tested on: EKVX NSCLC
[11] = tested on: HCC-2998 colon
[12] = tested on: HCT-116 colon
[13] = tested on: HCT-15 colon
[14] = tested on: HL-60(TB) leukemia
[15] = tested on: HOP-62 NSCLC
[16] = tested on: HOP-92 NSCLC
[17] = tested on: HS 578T breast
[18] = tested on: HT29 colon
[19] = tested on: IGROV1 ovarian
[20] = tested on: K-562 leukemia
[21] = tested on: KM12 colon
[22] = tested on: LOX IMVI melanoma
[23] = tested on: M14 melanoma
[24] = tested on: MALME-3M melanoma
[25] = tested on: MCF7 breast
[26] = tested on: MDA-MB-231 breast
[27] = tested on: MDA-MB-435
[28] = tested on: MDA-MB-468 breast
[29] = tested on: MOLT-4 leukemia

Q: Which GI50 [1] does the source give for `O=C(/C=C/c1ccc(F)cc1)c1nc2ccccc2n1Cc1ccc(Br)cc1` here?
A: 1930 nM

Q: What about the TGI [1] of the same compound?
A: 3.89 µM

Q: And the GI50 [2]?
A: 17.2 µM

Q: And the TGI [2]?
A: 32.1 µM

Q: What about the GI50 [3] of the same compound?
A: 3.93 µM

Q: What about the TGI [3] of the same compound?
A: 35.3 µM

Q: What about the GI50 [4] of the same compound?
A: 2800 nM

Q: What about the TGI [4] of the same compound?
A: 8.7 µM

Q: And the GI50 [5]?
A: 2240 nM

Q: And the TGI [5]?
A: 5.81 µM

Q: And the GI50 [6]?
A: 1970 nM

Q: And the TGI [6]?
A: 5.74 µM

Q: And the GI50 [7]?
A: 1620 nM

Q: And the TGI [7]?
A: 8.35 µM

Q: What about the GI50 [8] of the same compound?
A: 2350 nM

Q: What about the TGI [8] of the same compound?
A: 5.55 µM

Q: And the GI50 [9]?
A: 3.47 µM

Q: What about the TGI [9] of the same compound?
A: 26 µM

Q: What about the GI50 [10] of the same compound?
A: 2620 nM

Q: What about the TGI [10] of the same compound?
A: 7.78 µM

Q: What about the GI50 [11] of the same compound?
A: 1810 nM

Q: And the TGI [11]?
A: 3.36 µM

Q: And the GI50 [12]?
A: 1960 nM

Q: And the TGI [12]?
A: 4.26 µM

Q: And the GI50 [13]?
A: 1670 nM

Q: What about the TGI [13] of the same compound?
A: 3.46 µM

Q: What about the GI50 [14] of the same compound?
A: 2020 nM

Q: What about the TGI [14] of the same compound?
A: 6.3 µM

Q: What about the GI50 [15] of the same compound?
A: 2100 nM

Q: What about the TGI [15] of the same compound?
A: 4.87 µM

Q: What about the GI50 [16] of the same compound?
A: 2030 nM

Q: And the TGI [16]?
A: 12.1 µM

Q: And the GI50 [17]?
A: 3.71 µM

Q: What about the TGI [17] of the same compound?
A: 43.3 µM

Q: And the GI50 [18]?
A: 2370 nM

Q: What about the TGI [18] of the same compound?
A: 4.93 µM

Q: What about the GI50 [19] of the same compound?
A: 2310 nM

Q: What about the TGI [19] of the same compound?
A: 5.81 µM

Q: And the GI50 [20]?
A: 2840 nM

Q: And the TGI [20]?
A: > 100 µM

Q: What about the GI50 [21] of the same compound?
A: 2130 nM

Q: And the TGI [21]?
A: 5.22 µM

Q: What about the GI50 [22] of the same compound?
A: 1590 nM

Q: What about the TGI [22] of the same compound?
A: 3.06 µM

Q: And the GI50 [23]?
A: 2330 nM

Q: What about the TGI [23] of the same compound?
A: 6.43 µM

Q: And the GI50 [24]?
A: 1830 nM

Q: What about the TGI [24] of the same compound?
A: 4.17 µM

Q: What about the GI50 [25] of the same compound?
A: 1720 nM

Q: And the TGI [25]?
A: 9.27 µM

Q: What about the GI50 [26] of the same compound?
A: 2100 nM

Q: And the TGI [26]?
A: 4.66 µM

Q: And the GI50 [27]?
A: 1850 nM

Q: And the TGI [27]?
A: 4.19 µM

Q: And the GI50 [28]?
A: 1900 nM

Q: What about the TGI [28] of the same compound?
A: 4.12 µM

Q: And the GI50 [29]?
A: 2410 nM
